Target: T1, HCV NS3 helicase NS3h_1b(con1) (Hepatitis C virus genotype 1b, UniProt Q9WMX2)
T1 construct: truncated C-terminally His-tagged NS3 proteins lacking the N-terminal protease, called NS3h; His-tag (C); made in house
Test: MBHA screen of NCI mechanistic set library at 20 μM (percent inhibition, compound interference)
Assay type: biochemical
Conditions: compounds at 20 μM; for Inh. (%) (Inhibition): calculated from Equation 1
Outline: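 Molecular beacon-based DNA unwinding assay; compounds screened at 20 μM in triplicate, with DMSO-only negative and 500 nM dT20 positive controls. Fluorescence (ex 643/em 670 nm) was read before and 30 min after adding ATP to 1 mM. Percent inhibition came from the change relative to DMSO controls; interference from pre-ATP fluorescence versus DMSO controls.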

[1] = assay interference calculated with Equation 2 (fluorescence vs DMSO-only controls before ATP)
[2] = MBHA with DNA substrate, assay interference calculated with Equation 2

T1 sequence (Q9WMX2 1192-1657): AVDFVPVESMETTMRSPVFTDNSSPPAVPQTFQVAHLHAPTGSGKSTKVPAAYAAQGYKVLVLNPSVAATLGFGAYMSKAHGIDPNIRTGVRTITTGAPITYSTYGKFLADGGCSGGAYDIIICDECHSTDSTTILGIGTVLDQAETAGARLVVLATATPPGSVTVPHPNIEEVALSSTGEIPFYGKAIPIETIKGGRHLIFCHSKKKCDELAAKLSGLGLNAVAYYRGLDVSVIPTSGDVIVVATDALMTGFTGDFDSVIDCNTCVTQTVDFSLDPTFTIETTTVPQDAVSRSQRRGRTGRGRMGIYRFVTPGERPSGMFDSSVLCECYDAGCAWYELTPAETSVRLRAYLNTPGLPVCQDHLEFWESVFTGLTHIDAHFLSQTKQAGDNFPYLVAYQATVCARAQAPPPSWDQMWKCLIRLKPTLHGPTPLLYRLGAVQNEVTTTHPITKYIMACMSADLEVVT

Row | SMILES | Inh. (%) (Inhibition) (MBHA with a DNA substrate) | Int.* (Ratio) (Interference) [1] | Int.* (Ratio) (Interference) [2] | Inh. (%) (Inhibition) (MBHA with DNA substrate) | Inh. (%) (Inhibition) (MBHA with DNA substrate, 20 µM)
1 | O=C1c2ccccc2C(=O)c2c(O)c(NCCNCCO)cc(O)c21 [Compound 316157] | – | – | 0.70 Ratio | 36.4% | –
2 | CC1=NC(C(C)C)C(=O)O1 (stereo not drawn) [Compound 635968] | 9.0% | 0.97 Ratio | – | – | –
3 | CC(C)c1cccc(O)c(=O)c1 [Compound 18804] | – | – | 0.97 Ratio | 15.2% | –
4 | COc1cc(/C=C2\S/C(=N/Nc3nc(-c4ccc(Br)cc4)cs3)NC2=O)cc(OC)c1OC [Compound 657457] | – | – | 1.06 Ratio | −14.5% | –
5 | COc1ccc(-n2/c(=N/C(=S)N(C)C)ss/c2=N\C(=S)N(C)C)cc1 [Compound 622586] | – | – | 0.93 Ratio | −14.9% | –
6 | CC(=O)c1sc2[n+](c1C)C(=O)/C(=C\c1ccccc1Cl)S2 [Compound 658285] | – | – | 0.90 Ratio | 3.1% | –
7 | CC(CN1CC(=O)NC(=O)C1)N1CC(=O)NC(=O)C1 (stereo not drawn) [Compound 129943] | −5.2% | 1.13 Ratio | – | – | –
8 | NC(=O)C1=C[C@H]2[C@H]3C=C[C@@]2(O)C(=O)O[C@@H]3O1 [Compound 357683] | – | – | 0.99 Ratio | 2.7% | –
9 | C=CC(=O)N1C/C(=C\c2ccccc2)C(=O)/C(=C/c2ccccc2)C1 [Compound 632841] | – | – | 0.81 Ratio | 15.6% | –
10 | C=C(C)[C@@H]1CC[C@]2(CO)CC[C@]3(C)[C@H](CC[C@@H]4[C@@]5(C)CC[C@H](O)C(C)(C)[C@@H]5CC[C@]43C)[C@@H]12 [Compound 4644] | – | – | 1.32 Ratio | −13.9% | –
11 | Nc1ncnc2c1ncn2C1OC(CO)C(O)C1O (stereo not drawn) [Compound 404241] | – | – | 1.06 Ratio | – | −11.9%
12 | CC1=C(N2CC2)C(=O)c2nc3n(c2C1=O)CCC3OC(=O)CCl (stereo not drawn) [Compound 651080] | −4.4% | 0.85 Ratio | – | – | –
13 | C[C@@H](N)C(=O)NC(CO)C(O)C(N)C=O.Cl (stereo partly drawn) [Compound 278619] | – | – | 1.15 Ratio | 1.1% | –
14 | CCCCCC(/C=C/[C@@H]1CC(=O)C[C@H]1O[Si](C)(C)C(C)(C)C)OCOCCOC (stereo partly drawn) [Compound 689228] | – | – | 1.04 Ratio | −10.4% | –
15 | O=C([O-])c1cc(I)cc(I)c1O.O=C([O-])c1cc(I)cc(I)c1O.[Mn+2] [Compound 619907] | −27.2% | 0.86 Ratio | – | – | –
16 | C=C1C(=O)O[C@@H]2/C=C(/C)C(=O)C[C@H]3OC(C)(C)O[C@]3(C)C[C@@H](OC(=O)/C(C)=C\C)[C@@H]12 [Compound 329696] | – | – | 0.81 Ratio | 32.6% | –

Row | SMILES | Inh. (%) (Inhibition) (MBHA with a DNA substrate) | Int.* (Ratio) (Interference) [1] | Int.* (Ratio) (Interference) [2] | Inh. (%) (Inhibition) (MBHA with DNA substrate) | Inh. (%) (Inhibition) (MBHA with DNA substrate, 20 µM)
17 | CCCCCCCCCCCCCCCCCCN(C)C(COC)COP(=O)([O-])OCC[N+](C)(C)C (stereo not drawn) [Compound 643826] | −3.8% | 0.89 Ratio | – | – | –
18 | O=C1C(CN2CCCCC2)CCCC1CN1CCCCC1 (stereo not drawn) [Compound 39202] | – | – | 0.91 Ratio | 4.5% | –
19 | O=c1c(Br)c(-c2ccccc2)[nH]c2ccccc12 [Compound 12825] | – | – | 0.95 Ratio | 4.4% | –
20 | O=C(Nc1ccccc1-c1nn(C(=S)Nc2ccccc2)c(=S)n(C(=S)Nc2ccccc2)c1=O)C(F)(F)F [Compound 623093] | −4.2% | 0.87 Ratio | – | – | –
21 | O=S1(=O)CCN(c2ccccc2CC(c2c[nH]c3ccccc23)c2c[nH]c3ccccc23)CC1 [Compound 35949] | – | – | 1.25 Ratio | −8.9% | –
22 | COC(=O)C(=O)C(C(=O)C(=O)Nc1cc(C)ccc1C)c1nc2ccc(C(=O)c3ccccc3)cc2[nH]c1=O (stereo not drawn) [Compound 642040] | −3.2% | 0.90 Ratio | – | – | –
23 | O=C1C=C2C=CC3CC2(O1)C1CCCCN31 (stereo not drawn) [Compound 107415] | – | – | 0.97 Ratio | −15.2% | –
24 | CSC1SC[C@H]2C(=O)N(C)[C@@H](C(C)C)C(=O)OC[C@@H](NC(=O)c3cnc4ccccc4n3)C(=O)N[C@@H](C)C(=O)N(C)[C@@H]1C(=O)N(C)[C@@H](C(C)C)C(=O)OC[C@@H](NC(=O)c1cnc3ccccc3n1)C(=O)N[C@@H](C)C(=O)N2C (stereo partly drawn) [Compound 526417] | – | – | 0.86 Ratio | 55.2% | –
25 | Cc1cc2c(cc1C)[n+](=O)c(C(=O)/C=C/c1ccccc1[N+](=O)[O-])c(C)n2[O-] [Compound 621486] | – | – | 1.16 Ratio | −10.4% | –
26 | COc1ccc2cc3[n+](cc2c1OC)CCc1cc2c(cc1-3)OCO2.[Cl-] [Compound 163088] | – | – | 0.87 Ratio | 13.3% | –
27 | CC(=O)OC[C@H]1O[C@@H](NC(=O)N(CCCl)N=O)[C@H](OC(C)=O)[C@@H](OC(C)=O)[C@@H]1OC(C)=O [Compound 245432] | – | – | 1.06 Ratio | 37.4% | –
28 | N#CC(c1ccccc1)N(CCCCCCN(C(=O)c1ccccc1)C(C#N)c1ccccc1)C(=O)c1ccccc1 (stereo not drawn) [Compound 681744] | – | – | 0.98 Ratio | 20.4% | –
29 | O=C([CH-]C(=O)C(F)(F)F)c1ccccc1.O=C([CH-]C(=O)C(F)(F)F)c1ccccc1.O=C([CH-]C(=O)C(F)(F)F)c1ccccc1.O=C([CH-]C(=O)C(F)(F)F)c1ccccc1.[Eu+3].c1ccncc1 [Compound 253995] | – | – | 0.78 Ratio | 2.4% | –
30 | CCC[CH2][Sn]([CH2]CCC)([CH2]CCC)[O]c1cc(Cl)c(Cl)cc1Cl [Compound 164914] | 11.5% | 0.91 Ratio | – | – | –
31 | Cc1ccc([S+](c2ccccc2)c2cc(C)ccc2C)cc1.O=C(OC(C(=O)[O-])C(OC(=O)c1ccccc1)C(=O)O)c1ccccc1 (stereo not drawn) [Compound 116693] | – | – | 0.92 Ratio | −1.8% | –

More lines, now with the values ahead:

Row | Inh. (%) (Inhibition) (MBHA with a DNA substrate) | Int.* (Ratio) (Interference) [1] | Int.* (Ratio) (Interference) [2] | Inh. (%) (Inhibition) (MBHA with DNA substrate) | Inh. (%) (Inhibition) (MBHA with DNA substrate, 20 µM) | SMILES
32 | 9.2% | 0.49 Ratio | – | – | – | NC(N)=NCCCS(=O)(=O)Nc1ccc(Nc2c3ccccc3nc3cc([N+](=O)[O-])ccc23)cc1 [Compound 177365]
33 | 8.9% | 1.04 Ratio | – | – | – | CC(=O)N(C)c1ccc(Nc2cc(C)[nH]c3ccc4ncnc4c23)cc1.Cl [Compound 305884]
34 | – | – | 1.05 Ratio | 0.6% | – | CN(C)CCNC(=O)c1cccc2[nH]c(-c3ccncc3)nc12.Cl [Compound 678932]
35 | – | – | 1.00 Ratio | −0.9% | – | Oc1ccc(-c2nc3ccccc3s2)cc1 [Compound 33004]
36 | – | – | 0.89 Ratio | 0.4% | – | Nc1nc(Cl)nc2c1ncn2[C@H]1C[C@H](O)[C@@H](CO)O1 [Compound 105014]
37 | 10.6% | 0.88 Ratio | – | – | – | CCN(CC)CCCC(C)Nc1ccnc(/C=C/c2ccc(Cl)cc2)c1 (stereo not drawn) [Compound 157389]
38 | – | – | 1.03 Ratio | −8.6% | – | CN(C)c1cccc(F)c1C(=O)NC(=O)Nc1ccc(Cl)cc1 [Compound 603108]
39 | – | – | 1.10 Ratio | 2.5% | – | Cc1c(Cl)cccc1NC(=O)/C=C/c1ccccc1 [Compound 191392]
40 | – | – | 0.93 Ratio | −17.1% | – | COc1cc(/C=C(\OC(C)=O)c2ccc3c(c2)OCO3)cc(OC)c1OC [Compound 647363]
41 | −21.0% | 1.04 Ratio | – | – | – | N#C/C(=C\c1ccc2ccccc2c1)C(=O)c1ccccc1 [Compound 643186]
42 | – | – | 0.96 Ratio | −7.3% | – | COc1ccc(-c2cc(-c3ccccc3)nc3c2CC(=O)Nc2ccccc2-3)cc1OC [Compound 682769]
43 | – | – | 0.97 Ratio | 15.1% | – | COC1OC(COCc2ccc(Cl)cc2)C(OCc2ccc(Cl)cc2)C1O (stereo not drawn) [Compound 626120]
44 | – | – | 0.94 Ratio | −11.6% | – | C=CC(=O)N1C/C(=C\c2ccc([N+](=O)[O-])cc2)C(=O)/C(=C/c2ccc([N+](=O)[O-])cc2)C1 [Compound 687852]
45 | – | – | 1.02 Ratio | −18.3% | – | COc1ccc(C2C(C)C(=O)C(C)C(c3ccc(OC)cc3)N2N=O)cc1 (stereo not drawn) [Compound 626734]
46 | – | – | 1.05 Ratio | −10.4% | – | O=c1ncccn1C1OC(CO)C(O)C1F (stereo not drawn) [Compound 625355]
47 | −4.8% | 1.06 Ratio | – | – | – | CC(=O)Oc1ccc(C(c2ccc(OC(C)=O)cc2)c2ccccn2)cc1 [Compound 614826]
48 | – | – | 0.90 Ratio | −7.5% | – | C=CCOC1OC(CO[Si](C)(C)C(C)(C)C)C(OCc2ccccc2)C(OCc2ccccc2)C1OCc1ccccc1 (stereo not drawn) [Compound 624953]
49 | – | – | 0.96 Ratio | 6.7% | – | CCN(CC)CCOC(=O)Cc1cccc2c(=O)cc(-c3ccccc3)oc12 [Compound 293015]
50 | – | – | 0.91 Ratio | 23.5% | – | O=C1Oc2ccccc2C1C/C(=N\Nc1ccccc1)c1ccccc1O (stereo not drawn) [Compound 647613]
51 | – | – | 0.97 Ratio | 1.2% | – | COc1cc(OC)c(OC)cc1/C=C/c1ccnc2ccccc12 [Compound 80756]
